In ChEMBL document CHEMBL1201862, “PubChem BioAssay data set” (2004):
Several values for one entry are separate records, joined by “and”; a condition that tells them apart may be missing. Equal values may be shown once.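 All cell lines were grown in 96-well plates and treated with compound for 48 hours. Abbreviation: GI50, concentration required for 50% inhibition of growth.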 Activity calls are given as the source filed them. No stated cut-off is given here; in the data, active = GI50 up to about 1.1 µM and inactive = higher.

Columns and labels:
Experiment in all cases: inhibition of tumour cell growth, NCI panel, 48 h
[1] = tested on: A549
[2] = tested on: CAKI-1
[3] = tested on: HCT-15
[4] = tested on: HL-60
[5] = tested on: HOP-62
[6] = tested on: HT-29
[7] = tested on: IGROV-1
[8] = tested on: K562
[9] = tested on: M14
[10] = tested on: OVCAR-5
[11] = tested on: OVCAR-8
[12] = tested on: SF-539
[13] = tested on: SK-MEL-5
[14] = tested on: SK-OV-3
[15] = tested on: SNB-75
[16] = tested on: SNB-78
[17] = tested on: SR
[18] = tested on: TK-10
[19] = tested on: UACC-257
[20] = tested on: MDA-MB-435

| SMILES | GI50 [1] | GI50 [2] | GI50 [3] | GI50 [4] | GI50 [5] | GI50 [6] | GI50 [7] | GI50 [8] | GI50 [9] | GI50 [10] | GI50 [11] | GI50 [12] | GI50 [13] | GI50 [14] | GI50 [15] | GI50 [16] | GI50 [17] | GI50 [18] | GI50 [19] | GI50 [20] |
| --- | --- | --- | --- | --- | --- | --- | --- | --- | --- | --- | --- | --- | --- | --- | --- | --- | --- | --- | --- | --- |
| CCN(CC)c1ccc2cc3ccc(N(CC)CC)cc3[o+]c2c1 | 3.14 µM (inactive) | 4.06 µM (inactive) | 2.07 µM | 0.0773 µM (active) | 3.31 µM (inactive) | 0.474 µM (active) | 2.08 µM (inactive) | 2.82 µM (inactive) | 1.95 µM (inactive) | 6.82 µM (inactive) | 0.407 µM (active) | 2.02 µM (inactive) | 2.34 µM (inactive) | 6.52 µM (inactive) | 5.37 µM (inactive) | 2.43 µM (inactive) | 0.267 µM (active) | 6.08 µM (inactive) | 2.59 µM (inactive) | – |
| COC(=O)CCC(NC(=S)N/N=C/c1ccccn1)C(=O)OC (stereo unspecified) | > 100 µM (inactive) | – | > 100 µM | 84.3 µM (inactive) | > 100 µM (inactive) | > 100 µM (inactive) | > 100 µM (inactive) | > 100 µM (inactive) | > 100 µM (inactive) | 63.1 µM (inactive) | > 100 µM (inactive) | > 100 µM (inactive) | > 100 µM (inactive) | > 100 µM (inactive) | > 100 µM (inactive) | > 100 µM (inactive) | 59.2 µM (inactive) | > 100 µM (inactive) | > 100 µM (inactive) | – |
| COc1ccc(/C(=N/NC(N)=O)C2(O)C(=O)Nc3ccc([N+](=O)[O-])cc32)cc1 (stereo unspecified) | 55.6 µM (inactive) | 24.2 µM (inactive) | 20.7 µM | – | 28.2 µM (inactive) | 19.4 µM (inactive) | 31 µM (inactive) | 22 µM (inactive) | 15.3 µM (inactive) | 31.5 µM (inactive) | 22.3 µM (inactive) | 15.7 µM (inactive) | 27.3 µM (inactive) | > 100 µM (inactive) | 20.6 µM (inactive) | 17.8 µM (inactive) | 17.4 µM (inactive) | – | 21.1 µM (inactive) | – |
| COC(=O)C(Cc1nc2ccc(Cl)cc2nc1O)/C(=N/NC(N)=O)C(=O)Nc1ccc(Cl)cc1 (stereo unspecified) | > 100 µM (inactive) | > 100 µM (inactive) | > 100 µM | > 100 µM (inactive) | > 100 µM (inactive) | > 100 µM (inactive) | > 100 µM (inactive) | > 100 µM (inactive) | > 100 µM (inactive) | > 100 µM (inactive) | > 100 µM (inactive) | > 100 µM (inactive) | > 100 µM (inactive) | > 100 µM (inactive) | > 100 µM (inactive) | > 100 µM (inactive) | > 100 µM (inactive) | > 100 µM (inactive) | > 100 µM (inactive) | – |
| Cc1c2cnccc2c(C)c2c1c1ccccc1n2CCOC(=O)c1ccccc1 | 10.8 µM (inactive) | 6.24 µM (inactive) | 11.9 µM | 5.85 µM (inactive) | 13.2 µM (inactive) | 16.4 µM (inactive) | 9.44 µM (inactive) | 9.71 µM (inactive) | 26.7 µM (inactive) | 14.4 µM (inactive) | 6.55 µM (inactive) | 6.21 µM (inactive) | 16.2 µM (inactive) | 5.33 µM (inactive) | 22.9 µM (inactive) | 12.2 µM (inactive) | 17.5 µM (inactive) | 11.2 µM (inactive) | 12.4 µM (inactive) | 14.4 µM (inactive) |
| CC(C)(CN1CCCCC1)C(=O)/C=C/c1ccc(Cl)c(Cl)c1 | 1.98 µM (inactive) | – | 1.41 µM | 1.53 µM (inactive) | 1.95 µM (inactive) | 1.61 µM (inactive) | 2 µM (inactive) | 1.59 µM (inactive) | 1.7 µM (inactive) | 1.71 µM (inactive) | > 100 µM (inactive) | 2.07 µM (inactive) | 2.07 µM (inactive) | 2.34 µM (inactive) | 1.48 µM (inactive) | 1.51 µM (inactive) | 1.49 µM (inactive) | 1.48 µM (inactive) | 1.18 µM (inactive) | – |
| Nc1nnc(N)n1N | > 100 µM (inactive) | > 100 µM (inactive) | > 100 µM | > 100 µM (inactive) | > 100 µM (inactive) | > 100 µM (inactive) | > 100 µM (inactive) | > 100 µM (inactive) | > 100 µM (inactive) | > 100 µM (inactive) | – | > 100 µM (inactive) | > 100 µM (inactive) | > 100 µM (inactive) | > 100 µM (inactive) | > 100 µM (inactive) | > 100 µM (inactive) | > 100 µM (inactive) | > 100 µM (inactive) | – |
| C=C=C[P+](c1ccccc1)(c1ccccc1)c1ccccc1 | 26.8 µM (inactive) | – | 11.5 µM | 5.08 µM (inactive) | 53.1 µM (inactive) | – | 31.5 µM (inactive) | 3.4 µM (inactive) | 6.05 µM (inactive) | – | 3.13 µM (inactive) | 14.8 µM (inactive) | 5.86 µM (inactive) | 45.6 µM (inactive) | 8.79 µM (inactive) | 16.9 µM (inactive) | 21.3 µM (inactive) | 26.2 µM (inactive) | 7.06 µM (inactive) | – |
| Cc1nc(C(N)=S)sc1C(=O)CC(=O)C(=O)Nc1ccccc1[N+](=O)[O-] | > 100 µM (inactive) | > 100 µM (inactive) | > 100 µM | > 100 µM (inactive) | > 100 µM (inactive) | > 100 µM (inactive) | > 100 µM (inactive) | > 100 µM (inactive) | > 100 µM (inactive) | > 100 µM (inactive) | > 100 µM (inactive) | > 100 µM (inactive) | > 100 µM (inactive) | > 100 µM (inactive) | > 100 µM (inactive) | > 100 µM (inactive) | > 100 µM (inactive) | > 100 µM (inactive) | > 100 µM (inactive) | – |
| C/C=C(\NC(=O)C(CCCCN)NC(=O)C(C)NC(=O)C1CSC(C)C(NC(=O)C2CSCC(NC(=O)C(C)NC(=O)C(N)C(C)CC)C(=O)NC(CCCCN)C(=O)NC(Cc3ccccc3)C(=O)NC(CC(C)C)C(=O)N2)C(=O)N2CCCC2C(=O)NCC(=O)N1)C(=O)NCC(=O)NC1CSCC2NC(=O)C(Cc3ccc(O)cc3)NC(=O)C(CSC=CNC2=O)NC(=O)C(CC(N)=O)NC(=O)C(Cc2ccccc2)NC1=O (stereo unspecified) | > 100 µM (inactive) | – | > 100 µM | > 100 µM (inactive) | < 0.01 µM (active) | > 100 µM (inactive) | > 100 µM (inactive) | > 100 µM (inactive) | > 100 µM (inactive) | > 100 µM (inactive) | > 100 µM (inactive) | > 100 µM (inactive) | 19.6 µM (inactive) | – | 20.3 µM (inactive) | > 100 µM (inactive) | > 100 µM (inactive) | > 100 µM (inactive) | – | – |
| COc1ccc(C2=NN(c3ccccc3)C[N+](c3ccc(OC)cc3)=N2)cc1 | 48 µM (inactive) | – | 43.7 µM | 24 µM (inactive) | 66.1 µM (inactive) | 57.3 µM (inactive) | 21.3 µM (inactive) | 19.2 µM (inactive) | – | 25 µM (inactive) | 85.7 µM (inactive) | – | 14.7 µM (inactive) | – | – | 28.2 µM (inactive) | 34 µM (inactive) | 42.4 µM (inactive) | 76.2 µM (inactive) | – |
| CCOC(=O)Cn1c(=O)n(C)c(=O)c2[nH]cnc21 | > 100 µM (inactive) | > 100 µM (inactive) | > 100 µM | – | > 100 µM (inactive) | > 100 µM (inactive) | > 100 µM (inactive) | > 100 µM (inactive) | > 100 µM (inactive) | – | > 100 µM (inactive) | > 100 µM (inactive) | > 100 µM (inactive) | > 100 µM (inactive) | > 100 µM (inactive) | > 100 µM (inactive) | > 100 µM (inactive) | > 100 µM (inactive) | – | – |
| COc1cc2c(cc1O)[C@H](C)C(c1ccc(Cl)cc1)O2 (stereo partly specified) | 24.9 µM (inactive) | 11.6 µM (inactive) | 13.1 µM | 14.2 µM (inactive) | 22.6 µM (inactive) | 30.9 µM (inactive) | 22.5 µM (inactive) | 18.3 µM (inactive) | 22.2 µM (inactive) | 25.4 µM (inactive) | > 10 µM (inactive) | 57.9 µM (inactive) | 16.3 µM (inactive) | 23.3 µM (inactive) | 2.72 µM (inactive) | 21.3 µM (inactive) | – | 24.4 µM (inactive) | 19.8 µM (inactive) | – |
| COc1ccccc1/C=C1\C(=O)N(C(=O)Cc2ccccc2)N=C1C | > 100 µM (inactive) | > 100 µM (inactive) | > 100 µM | > 100 µM (inactive) | > 100 µM (inactive) | > 100 µM (inactive) | – | > 100 µM (inactive) | > 100 µM (inactive) | > 100 µM (inactive) | > 100 µM (inactive) | > 100 µM (inactive) | > 100 µM (inactive) | – | > 100 µM (inactive) | > 100 µM (inactive) | > 100 µM (inactive) | > 100 µM (inactive) | > 100 µM (inactive) | – |
| O=c1c(Cl)c(Cl)cnn1-c1ccccc1 | 20.3 µM (inactive) and 10.8 µM (inactive) | – | 2.35 µM and 1.85 µM | 893 nM (active) and 1.09 µM (active) | 15 µM (inactive) and 8.49 µM (inactive) | – | – | 968 nM (active) and 929 nM (active) | 1.74 µM (inactive) and 1.76 µM (inactive) | – | 3.85 µM (inactive) and 2.39 µM (inactive) | – | – | – | – | 7.33 µM (inactive) | 2.14 µM (inactive) and 1.61 µM (inactive) | 15.6 µM (inactive) and 9.33 µM (inactive) | 13 µM (inactive) and 6.85 µM (inactive) | 1.79 µM (inactive) and 2.08 µM (inactive) |
| COC(=O)c1ccc(CS(=O)(=O)c2ccccc2)cc1 | 67.8 µM (inactive) | > 100 µM (inactive) | 39.5 µM | 76.6 µM (inactive) | > 100 µM (inactive) | 40.8 µM (inactive) | > 100 µM (inactive) | > 100 µM (inactive) | 49.8 µM (inactive) | > 100 µM (inactive) | > 100 µM (inactive) | > 100 µM (inactive) | 55.8 µM (inactive) | > 100 µM (inactive) | 48.3 µM (inactive) | > 100 µM (inactive) | 45 µM (inactive) | > 100 µM (inactive) | > 100 µM (inactive) | – |
